# Results from patent US11827628B2, “Compositions and methods for inhibition of the JAK pathway” (Rigel Pharmaceuticals, Inc., priority 2005, dated 2023).
# Like-named read-outs stand apart in the source and are kept apart here.
# System: Primary human T-cells
# Experiment: Primary Human T-Cell Proliferation Assay Stimulated with IL-2 (CellTiter-Glo)
# Format: cell-based
# Conditions: read-out: IC50, Example 42
# Method in brief: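 Peripheral blood T-cells pre-activated with anti-CD3/anti-CD28 and IL-2 were washed free of IL-2, then cultured with compound plus IL-2 for 72 hours at 37° C, duplicate wells. Viability read as ATP by CellTiter-Glo luminescence; IC50 reported.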
# [1] = Homo sapiens, T-cell, primary human T-cell proliferation stimulated with IL-2
# [2] = primary human T-cells stimulated with IL-2, proliferation
compound,measurement,setting,value
"C=CCNC(=O)COc1ccc(Nc2nc(Nc3cccc(S(N)(=O)=O)c3)ncc2F)cc1 [Compound I-158, N4-(4-Allylaminocarbonylmethoxyphenyl)-N2-(3-aminosulfonylphenyl)-5-fluoro-2,4-pyrimidinediamine]",IC50,[1],445 nM
"Cc1ccc(Nc2ncc(F)c(NCCc3ccc(-c4ccncc4)cc3)n2)cc1S(N)(=O)=O [III-77, N2-(3-Aminosulfonyl-4-methylphenyl)-5-fluoro-N4-[4-(4-pyridinyl)phenethyl]-2,4-pyrimidinediamine]",IC50,[1],210 nM
"N4-(3,4-Dichlorophenyl)-5-fluoro-N2-[3-(4-methylpipendin-1-yl)aminosulfonylphenyl]-2,4-pyrimidinediamine [VI-10]",IC50,[2],2400 nM
"Cc1ccc(Nc2nc(Nc3ccc(C)c(S(N)(=O)=O)c3)ncc2F)cc1OCCN1CCOCC1 [Compound I-204, N2-(3-Aminosulfonyl-4-methylphenyl)-5-fluoro-N4-[4-methyl-3-(2-morpholinoethyloxy)phenyl]2,4-pyrimidinediamine]",IC50,[1],1650 nM
"N#CCOc1ccc(Nc2nc(Nc3ccc(S(N)(=O)=O)cc3)ncc2F)cc1-c1ccn(CC#N)n1 [Compound I-52, N2-(4-Aminosulfonylphenyl)-N4-[4-cyanomethoxy-3-(1-cyanomethylpyrazol-3-yl)phenyl]-5-fluoro-2,4-pyrimidinediamine]",IC50,[1],5300 nM
"Cc1ccc(Nc2ncc(C)c(Nc3ccc(OCC(=O)N(C)C)c(Cl)c3)n2)cc1S(N)(=O)=O [Compound I-136, N2-(3-Aminosulfonyl-4-methylphenyl)-N4-(3-chloro-4-dimethylaminocarbonylmethoxyphenyl)-5-methyl-2,4-pyrimidinediamine]",IC50,[1],196 nM
"CNS(=O)(=O)c1cc(Nc2ncc(F)c(Nc3ccc(-c4cnco4)cc3)n2)ccc1C [IV-7, 5-Fluoro-N2-[3-(N-methylaminosulfony)-4-methylphenyl]-N4-[4-(1,3-oxazol-5-yl)phenyl]-2,4-pyrimidinediamine]",IC50,[2],203 nM
"Cc1ccc(Nc2ncc(F)c(Nc3ccc(CCOC(N)=O)cc3)n2)cc1S(N)(=O)=O [III-53, N4-{4-[2-(Aminocarbonyloxy)ethyl]phenyl}-N2-(3-aminosulfonyl-4-methylphenyl)-5-fluoro-2,4-pyrimidinediamine]",IC50,[1],286 nM
"NS(=O)(=O)c1cccc(Nc2ncc(F)c(NCCc3ccc(-n4ccnc4)cc3)n2)c1 [III-87, N2-(3-Aminosulfonylphenyl)-5-fluoro-N4-[4-(1-imidazolyl)phenethyl]-2,4-pyrimidinediamine]",IC50,[1],142 nM
